Experimental data published in ChEMBL document CHEMBL4699578, “Next generation quorum sensing inhibitors: Accounts on structure activity relationship studies and biological activities” (Bioorg Med Chem, 2020).

Legend:
[1] = Inhibition of quorum sensing system in Chromobacterium violaceum CV026 assessed as reduction in violacein production incubated for 16 to 18 hrs by spot test method
Pseudomonas aeruginosa [2] = assay: Inhibition of quorum sensing system in Pseudomonas aeruginosa assessed as reduction in biofilm formation at 250 uM incubated for 24 hrs by crystal violet staining based method relative to control
Escherichia coli [3] = assay: Inhibition of quorum sensing system in Escherichia coli MT102 at 250 uM measured after 15 hrs by fluorescence method relative to control
[4] = Inhibition of LuxR in Escherichia coli Top10 assessed as reduction in GFP production using 3OC6HSL as substrate by fluorescence method
[5] = test system: Vibrio campbellii ATCC BAA-1116; assay: Inhibition of quorum sensing system in Vibrio harveyi BB120 assessed as delay time for the onset of bioluminescence at 50 ug/ml measured every 10 mins after 5 min of double orbital stirring during 11 hrs 50 mins by luminescence method; details: dose 50.0 µg/ml, time 710.0 min
Pseudomonas aeruginosa [6] = assay: Inhibition of quorum sensing system in Pseudomonas aeruginosa MH602 harboring lasB promoter measured at 250 uM every 30 mins over 22 hrs by fluorescence method relative to control; details: time hrs >22
Escherichia coli [7] = assay: Inhibition of quorum sensing system in Escherichia coli assessed as reduction in biofilm formation at 250 uM incubated for 24 hrs by crystal violet staining based method relative to control
[8] = Inhibition of quorum sensing system in Burkholderia cepacia
[9] = Inhibition of quorum sensing system in Pseudomonas aeruginosa
Pseudomonas aeruginosa [10] = assay: Antagonist activity at Pseudomonas aeruginosa PAO-JP2 LasR assessed as reduction in GFP production incubated for 6 hrs in presence of OdDHL by fluorescence method relative to control; parameters: scale not given: the % may be the effect or the level left; details: filed as antagonist
[11] = Antagonist activity at Pseudomonas aeruginosa PAO-JP2 LasR assessed as reduction in GFP production incubated for 6 hrs in presence of OdDHL by fluorescence method
[12] = Inhibition of quorum sensing system in Pseudomonas aeruginosa PAO1
[13] = Inhibition of quorum sensing system in Staphylococcus aureus
[14] = Inhibition of quorum sensing system in Pseudomonas aeruginosa PAO1 assessed as reduction in pyocyanin production incubated for 8 hrs
[15] = Inhibition of quorum sensing system in Pseudomonas aeruginosa PAO1 assessed as reduction in […] incubated for 18 hrs by congo red staining based assay
[16] = Inhibition of quorum sensing system in Proteus mirabilis
[17] = Antagonist activity at Vibrio fischeri quorum sensing system in presence of OHHL by bioluminescence method; parameters: species or system Aliivibrio fischeri
[18] = biological target: T1, Transcriptional activator protein LuxR (Aliivibrio fischeri, UniProt P12746); assay: Antagonist activity at Vibrio fischeri luxR expressed in Escherichia coli NM522 in presence of 3-oxo-C6-HSL
T1 sequence (P12746 whole entry): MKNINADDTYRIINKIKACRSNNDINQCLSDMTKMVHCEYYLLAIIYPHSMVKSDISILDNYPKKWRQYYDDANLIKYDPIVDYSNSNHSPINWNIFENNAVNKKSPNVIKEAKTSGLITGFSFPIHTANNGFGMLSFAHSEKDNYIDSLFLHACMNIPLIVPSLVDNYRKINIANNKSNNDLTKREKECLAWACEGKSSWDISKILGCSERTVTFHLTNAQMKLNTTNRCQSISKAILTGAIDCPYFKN

[19] = Inhibition of quorum sensing system in Escherichia coli O157:H7
[20] = Inhibition of quorum sensing system in Stenotrophomonas maltophilia

O=C(Nc1ccc(S(=O)(=O)N[C@H]2CCOC2=O)cc1)c1sccc1Cl
IC50 [1]: 6.19 µM

C#CCNC(=O)C(=O)c1ccccc1NC(=O)CCl
inhibition (Pseudomonas aeruginosa [2]): 66.9% | inhibition (Escherichia coli [3]): 71.5%

CCOC(=O)/C=C1\CC(NCc2ccc(C)cc2)C(=O)N1Cc1ccc(C)cc1 (stereo unspecified)
IC50 [4]: 50 µM

C=C1CCC[C@H]2[C@](C)(Cc3c(O)c(OC(C)=O)cc(OC)c3OC(C)=O)[C@@H](C)CC[C@]12C
TIME [5]: 1 h

C#CCNC(=O)C(=O)c1cc(F)ccc1NC(=O)CCl
inhibition (Pseudomonas aeruginosa [6]): 71.5% | inhibition (Escherichia coli [7]): 89.5% | inhibition (Escherichia coli [3]): 73.5%

C#CCNC(=O)C(=O)c1cc(Br)ccc1NC(=O)CCl
inhibition (Pseudomonas aeruginosa [2]): 66.5%

C=C1CCC[C@H]2[C@](C)(CC3=C(O)C(=O)C=C(O)C3=O)[C@@H](C)CC[C@]12C
TIME [5]: 2.5 h

C[C@H]1CC[C@]2(C)C(=O)CCC[C@H]2[C@]1(C)CC1=C(O)C(=O)CC1=O
TIME [5]: 0.667 h

O=c1oc2c(O)c(O)cc3c(=O)oc4c(O)c(O)cc1c4c23 [ELLAGIC ACID]
IC50 [8]: 132 µM

O=C(O)/C=C/c1ccccc1 [CINNAMIC ACID]
IC50 [9]: 1680 µM

C#CCNC(=O)C(=O)c1cc(Cl)ccc1NC(=O)CCl
inhibition (Pseudomonas aeruginosa [6]): 71.5% | inhibition (Escherichia coli [7]): 90.8% | inhibition (Escherichia coli [3]): 72.1%

CCCCCCCCCNC(=O)CC(=O)c1ccco1
Activity (Pseudomonas aeruginosa [10]): 96% | IC50 [11]: 1.2 µM

O=C(O)c1ccccc1O [SALICYLIC ACID]
IC50 [9]: 1440 µM

Oc1cc(O)c2c(c1)O[C@H](c1ccc(O)c(O)c1)[C@@H](O)C2 [CIANIDANOL]
IC50 [12]: 4000 µM

O=c1c(O)c(-c2ccc(O)cc2)oc2cc(O)cc(O)c12 [KAEMPFEROL]
IC50 [13]: 220 µM

O=C1C[C@@H](c2ccc(O)cc2)Oc2cc(O)cc(O)c21 [NARINGENIN]
IC50 [14]: 4000 µM | IC50 [15]: 4000 µM

COC1=CC(=O)C(O)=C(C[C@]2(C)[C@@H](C)CC[C@]3(C)OC(=O)CCC[C@@H]23)C1=O
TIME [5]: 0.667 h

COc1cc(/C=C/C(=O)CC(=O)/C=C/c2ccc(O)c(OC)c2)ccc1O [CURCUMIN]
IC50 [12]: 3 µM

O=C1C[C@@H](c2ccc(O)c(O)c2)Oc2cc(O)cc(O)c21 [ERIODICTYOL]
IC50 [14]: 4000 µM | IC50 [15]: 4000 µM

Oc1ccc(/C=C/c2cc(O)cc(O)c2)cc1 [RESVERATROL]
IC50 [16]: 65 µM

CC1=CC(=O)C(C(C)C)=CC1=O [THYMOQUINONE]
IC50 [13]: 130 µM

O=C(OC[C@H]1O[C@@H](OC(=O)c2cc(O)c(O)c(OC(=O)c3cc(O)c(O)c(O)c3)c2)[C@H](OC(=O)c2cc(O)c(O)c(OC(=O)c3cc(O)c(O)c(O)c3)c2)[C@@H](OC(=O)c2cc(O)c(O)c(OC(=O)c3cc(O)c(O)c(O)c3)c2)[C@@H]1OC(=O)c1cc(O)c(O)c(OC(=O)c2cc(O)c(O)c(O)c2)c1)c1cc(O)c(O)c(OC(=O)c2cc(O)c(O)c(O)c2)c1 [TANNIC ACID]
IC50 [13]: 20 µM

O=C(N[C@H]1CCOC1=O)OCc1ccc([N+](=O)[O-])cc1
IC50 [17]: 22 µM

O=C1Cn2nncc2CNC(=O)C(=O)c2ccccc2NC(=O)Cn2nncc2CNC(=O)C(=O)c2ccccc2N1
inhibition (Pseudomonas aeruginosa [6]): 73.5%

O=C1C(=O)N(C(=O)CCl)c2ccccc21
inhibition (Escherichia coli [7]): 87.9%

Cc1ccc2c(c1)C(=O)C(=O)N2C(=O)CCl
inhibition (Pseudomonas aeruginosa [2]): 71.2%

O=C(N[C@H]1CCOC1=O)SCc1ccc([N+](=O)[O-])cc1
IC50 [17]: 23 µM

Nc1ccccc1[N+](=O)[O-] [2-NITROANILINE]
IC50 [18]: 85 µM

O=c1c(O)c(-c2ccc(O)c(O)c2)oc2cc(O)cc(O)c12 [QUERCETIN]
IC50 [19]: 20 µM

O=C1c2c(O)cc(O)cc2O[C@H](c2ccc(O)c(O)c2)[C@H]1O [(+)-TAXIFOLIN]
IC50 [14]: 4000 µM | IC50 [15]: 4000 µM

O=C/C=C/c1ccccc1 [CINNAMALDEHYDE]
IC50 [12]: 5900 µM

O=C(/C=C/c1ccc(O)c(O)c1)O[C@@H]1C[C@](O)(C(=O)O)C[C@@H](O)[C@H]1O [CHLOROGENIC ACID]
IC50 [20]: 22 µM
